Test results taken from patent US8754222B2, “Process for preparing modulators of cystic fibrosis transmembrane conductance regulator” (Vertex Pharmaceuticals Incorporated, priority 2009, dated 2014).
pEC50: −log10 of the molar value.

Target: T1, ΔF508-CFTR (Homo sapiens, UniProt P13569, DEL508-508)
T1 construct: expressed in transfected cells; host or cells: NIH3T3 mouse fibroblasts, stably expressing, temperature-corrected at 27 °C
Test: Membrane potential optical assay, identification of potentiator compounds
Assay type: cell-based
Conditions: assay not specified; ΔF508-CFTR potentiation, NIH 3T3 cells
Description: Membrane Potential Optical Methods for Assaying ΔF508-CFTR Modulation Properties of Compounds
The assay utilizes fluorescent voltage sensing dyes to measure changes in membrane potential using a fluorescent plate reader (e.g., FLIPR III, Molecular Devices, Inc.) as a readout for increase in functional ΔF508-CFTR in NIH 3T3 cells. The driving force for the response is the creation of a chloride ion gradient in conjunction with channel activation by a single liquid addition step after the cells have previously been treated with compounds and subsequently loaded with a voltage sensing dye.
Identification of Potentiator Compounds
To identify potentiators of ΔF508-CFTR, a double-addition HTS assay format was developed. This HTS assay utilizes fluorescent voltage sensing dyes to measure changes in membrane potential on the FLIPR III as a measurement for increase in gating (conductance) of ΔF508 CFTR in temperature-corrected ΔF508 CFTR NIH 3T3 cells. The driving force for the response is a ion gradient in conjunction with channel activation with forskolin in a single liquid addition step using a fluorescent plate reader such as FLIPR III after the cells have previously been treated with potentiator compounds (or DMSO vehicle control) and subsequently loaded with a redistribution dye.
Bath Solution #1: (in mM) NaCl 160, KCl 4.5, CaCl2 2, MgCl2 1, HEPES 10, pH 7.4 with NaOH. […]

T1 sequence (P13569 with tags, fused parts or gaps DEL508-508): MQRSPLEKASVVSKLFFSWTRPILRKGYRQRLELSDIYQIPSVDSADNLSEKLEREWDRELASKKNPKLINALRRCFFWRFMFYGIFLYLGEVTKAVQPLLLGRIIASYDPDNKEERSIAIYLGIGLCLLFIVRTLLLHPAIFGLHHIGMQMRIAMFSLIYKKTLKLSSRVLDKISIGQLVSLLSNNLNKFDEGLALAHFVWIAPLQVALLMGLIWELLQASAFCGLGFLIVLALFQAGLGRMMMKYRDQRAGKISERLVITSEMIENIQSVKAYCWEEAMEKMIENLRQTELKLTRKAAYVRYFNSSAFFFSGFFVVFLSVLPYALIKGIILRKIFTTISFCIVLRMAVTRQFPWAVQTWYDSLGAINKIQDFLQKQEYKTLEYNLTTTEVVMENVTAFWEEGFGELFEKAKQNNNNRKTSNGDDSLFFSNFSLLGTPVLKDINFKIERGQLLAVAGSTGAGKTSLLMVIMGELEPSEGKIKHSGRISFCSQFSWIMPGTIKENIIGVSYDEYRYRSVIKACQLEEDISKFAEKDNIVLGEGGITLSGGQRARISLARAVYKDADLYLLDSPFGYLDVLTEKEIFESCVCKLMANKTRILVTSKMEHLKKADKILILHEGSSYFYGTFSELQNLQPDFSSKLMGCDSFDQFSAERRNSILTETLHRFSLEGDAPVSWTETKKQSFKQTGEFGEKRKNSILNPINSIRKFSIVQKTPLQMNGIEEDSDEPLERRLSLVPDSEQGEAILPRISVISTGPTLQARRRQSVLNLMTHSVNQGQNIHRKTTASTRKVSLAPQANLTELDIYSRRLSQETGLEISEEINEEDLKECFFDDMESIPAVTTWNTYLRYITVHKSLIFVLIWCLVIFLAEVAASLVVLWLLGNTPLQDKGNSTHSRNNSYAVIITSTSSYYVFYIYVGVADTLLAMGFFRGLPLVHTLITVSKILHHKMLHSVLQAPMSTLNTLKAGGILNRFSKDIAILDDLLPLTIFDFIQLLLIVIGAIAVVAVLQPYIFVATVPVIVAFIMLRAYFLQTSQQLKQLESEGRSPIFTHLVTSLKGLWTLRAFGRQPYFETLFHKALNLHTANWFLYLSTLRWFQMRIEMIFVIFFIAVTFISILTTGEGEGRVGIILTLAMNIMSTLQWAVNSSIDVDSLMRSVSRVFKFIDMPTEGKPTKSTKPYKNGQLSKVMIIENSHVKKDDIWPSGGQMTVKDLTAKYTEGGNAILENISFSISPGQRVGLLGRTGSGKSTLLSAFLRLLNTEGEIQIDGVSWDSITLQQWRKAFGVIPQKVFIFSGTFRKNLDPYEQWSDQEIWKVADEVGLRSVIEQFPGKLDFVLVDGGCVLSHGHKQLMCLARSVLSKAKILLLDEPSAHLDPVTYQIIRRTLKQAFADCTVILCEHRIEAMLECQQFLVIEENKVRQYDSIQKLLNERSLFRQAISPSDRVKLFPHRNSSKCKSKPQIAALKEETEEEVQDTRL

O=C(Nc1ccc(N2C3CCC2CC3)cc1C(F)(F)F)c1c[nH]c2cccc(C(F)(F)F)c2c1=O [Compound 1 Form A, N-(4-(7-azabicyclo[2.2.1]heptan-7-yl)-2-(trifluoromethyl)phenyl)-4-oxo-5-(trifluoromethyl)-1,4-dihydroquinoline-3-carboxamide]
pEC50: > 5.70
